What follows are cell lines tested with CCn1c(-c2nonc2N)nc2c(C#CC(C)(C)O)ncc(OC[C@H]3CCCNC3)c21 + Cc1nc(Nc2ncc(C(=O)Nc3c(C)cccc3Cl)s2)cc(N2CCN(CCO)CC2)n1 [Dasatinib] (partner 0.075 µM) (assay: relative viability (nuclei count vs DMSO), 5 days (fraction); higher = more cells survive). Conditions: first compound 1 µM.
Summary of the method: (§1)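 For relative viability, nuclei counts in treated wells were divided by those in vehicle wells. Lung cancer cell lines had been pin-tool dosed in 1536-well plates the day after seeding and cultured for 5 days, then fixed and stained in one step (final 0.05% Triton X-100, 1% formaldehyde, 1 ug/ml Hoechst) and imaged at 4×. Doses were one drug alone or a fixed anchor-drug dose plus five library-drug doses (not always all listed) in √10 steps, and values are duplicate-plate medians.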

Question: How did the relative viability turn out when NCI-H2228 was run?
Answer: 0.353

Question: How did the relative viability turn out when NCI-H1355 was run?
Answer: 0.755

Question: NCI-H3122 was tested. Which relative viability did it give?
Answer: 0.637

Question: How did the relative viability turn out when NCI-H1437 was run?
Answer: 0.354

Question: With NCI-H1755 as the cell line, how does the relative viability read?
Answer: 0.42

Question: For NCI-H2023, which relative viability is on record?
Answer: 0.344

Question: Which relative viability does the source give for HCC-15 here?
Answer: 0.532

Question: For PC-14, which relative viability is on record?
Answer: 0.301

The cell lines below were run with CCn1c(-c2nonc2N)nc2c(C#CC(C)(C)O)ncc(OC[C@H]3CCCNC3)c21 + CC(C)C[C@H](NC(=O)[C@H](Cc1ccccc1)NC(=O)c1cnccn1)B(O)O [Bortezomib] (partner 0.002 µM) in the same assay as above. Conditions: first compound 0.01 µM.
Summary of the method: as §1

Question: Which relative viability does the source give for HCC-827 here?
Answer: 1.07

Question: With LXF-289 as the cell line, how does the relative viability read?
Answer: 1

Question: With NCI-H23 as the cell line, how does the relative viability read?
Answer: 0.974

Question: For NCI-H647, which relative viability is on record?
Answer: 0.972

Question: How did the relative viability turn out when CAL-12T was run?
Answer: 0.939

Question: Which relative viability does the source give for NCI-H1651 here?
Answer: 0.905

Question: Which relative viability does the source give for EPLC-272H here?
Answer: 0.859

Question: How did the relative viability turn out when NCI-H2228 was run?
Answer: 1.06

Question: For NCI-H1355, which relative viability is on record?
Answer: 1.23

Question: How did the relative viability turn out when NCI-H3122 was run?
Answer: 1.05

Question: With NCI-H1437 as the cell line, how does the relative viability read?
Answer: 0.616

Question: Which relative viability does the source give for NCI-H1755 here?
Answer: 0.956

Question: NCI-H2023 was tested. Which relative viability did it give?
Answer: 0.924

Question: With HCC-15 as the cell line, how does the relative viability read?
Answer: 0.988

Question: How did the relative viability turn out when PC-14 was run?
Answer: 0.966

Same assay, conditions: first compound 0.03162 µM

Question: How did the relative viability turn out when HCC-827 was run?
Answer: 1.04

Question: For LXF-289, which relative viability is on record?
Answer: 0.963

Question: For NCI-H23, which relative viability is on record?
Answer: 1.06

Question: For NCI-H647, which relative viability is on record?
Answer: 1.25

Question: For CAL-12T, which relative viability is on record?
Answer: 0.852

Question: How did the relative viability turn out when NCI-H1651 was run?
Answer: 0.901

Question: For EPLC-272H, which relative viability is on record?
Answer: 0.957

Question: How did the relative viability turn out when NCI-H2228 was run?
Answer: 1.28

Question: Which relative viability does the source give for NCI-H1355 here?
Answer: 1.11

Question: How did the relative viability turn out when NCI-H3122 was run?
Answer: 1.03

Question: Which relative viability does the source give for NCI-H1437 here?
Answer: 0.538

Question: NCI-H1755 was tested. Which relative viability did it give?
Answer: 0.917

Question: How did the relative viability turn out when NCI-H2023 was run?
Answer: 0.977

Question: For HCC-15, which relative viability is on record?
Answer: 1.06

Question: PC-14 was tested. Which relative viability did it give?
Answer: 0.84

Same assay, conditions: first compound 0.1 µM

Question: How did the relative viability turn out when HCC-827 was run?
Answer: 1.09

Question: How did the relative viability turn out when LXF-289 was run?
Answer: 1

Question: How did the relative viability turn out when NCI-H23 was run?
Answer: 0.913

Question: For NCI-H647, which relative viability is on record?
Answer: 0.937

Question: Which relative viability does the source give for CAL-12T here?
Answer: 1.08

Question: Which relative viability does the source give for NCI-H1651 here?
Answer: 0.864

Question: With EPLC-272H as the cell line, how does the relative viability read?
Answer: 0.894

Question: How did the relative viability turn out when NCI-H2228 was run?
Answer: 0.912

Question: How did the relative viability turn out when NCI-H1355 was run?
Answer: 1.15

Question: Which relative viability does the source give for NCI-H3122 here?
Answer: 1.07

Question: With NCI-H1437 as the cell line, how does the relative viability read?
Answer: 0.593

Question: For NCI-H1755, which relative viability is on record?
Answer: 0.939

Question: For NCI-H2023, which relative viability is on record?
Answer: 0.904

Question: HCC-15 was tested. Which relative viability did it give?
Answer: 1.01

Question: How did the relative viability turn out when PC-14 was run?
Answer: 0.956

Same assay, conditions: first compound 0.3162 µM

Question: HCC-827 was tested. Which relative viability did it give?
Answer: 0.988

Question: LXF-289 was tested. Which relative viability did it give?
Answer: 0.976

Question: Which relative viability does the source give for NCI-H23 here?
Answer: 0.861

Question: With NCI-H647 as the cell line, how does the relative viability read?
Answer: 1.02

Question: How did the relative viability turn out when CAL-12T was run?
Answer: 1.16

Question: NCI-H1651 was tested. Which relative viability did it give?
Answer: 0.903

Question: With EPLC-272H as the cell line, how does the relative viability read?
Answer: 0.96

Question: For NCI-H2228, which relative viability is on record?
Answer: 0.584

Question: Which relative viability does the source give for NCI-H1355 here?
Answer: 1.13

Question: How did the relative viability turn out when NCI-H3122 was run?
Answer: 1.1

Question: How did the relative viability turn out when NCI-H1437 was run?
Answer: 0.357

Question: Which relative viability does the source give for NCI-H1755 here?
Answer: 0.923

Question: With NCI-H2023 as the cell line, how does the relative viability read?
Answer: 0.861

Question: With HCC-15 as the cell line, how does the relative viability read?
Answer: 0.925

Question: With PC-14 as the cell line, how does the relative viability read?
Answer: 0.813

Same assay, conditions: first compound 1 µM

Question: How did the relative viability turn out when HCC-827 was run?
Answer: 1.02

Question: With LXF-289 as the cell line, how does the relative viability read?
Answer: 1.02

Question: For NCI-H23, which relative viability is on record?
Answer: 1.13

Question: For NCI-H647, which relative viability is on record?
Answer: 0.812

Question: How did the relative viability turn out when CAL-12T was run?
Answer: 1.1

Question: NCI-H1651 was tested. Which relative viability did it give?
Answer: 0.989

Question: For EPLC-272H, which relative viability is on record?
Answer: 0.847

Question: NCI-H2228 was tested. Which relative viability did it give?
Answer: 0.737

Question: Which relative viability does the source give for NCI-H1355 here?
Answer: 1.19

Question: Which relative viability does the source give for NCI-H3122 here?
Answer: 1.08

Question: For NCI-H1437, which relative viability is on record?
Answer: 0.483

Question: Which relative viability does the source give for NCI-H1755 here?
Answer: 0.906

Question: Which relative viability does the source give for NCI-H2023 here?
Answer: 0.912

Question: For HCC-15, which relative viability is on record?
Answer: 0.952

Question: With PC-14 as the cell line, how does the relative viability read?
Answer: 0.852

Each cell line was assayed with CCOC1=CC=CC=C1N=NC2=C(NN(C2=O)C3=NC(=CS3)C4=CC=CC=C4)C [BAM7] + Nc1nc2[nH]cc(CCc3ccc(C(=O)N[C@@H](CCC(=O)O)C(=O)O)cc3)c2c(=O)[nH]1 [Pemetrexed] (partner 0.2 µM) in the same assay as above. Conditions: first compound 0.5 µM.
Summary of the method: as §1

Question: How did the relative viability turn out when HCC-827 was run?
Answer: 0.27

Question: Which relative viability does the source give for LXF-289 here?
Answer: 1.01

Question: Which relative viability does the source give for NCI-H23 here?
Answer: 0.832

Question: Which relative viability does the source give for NCI-H647 here?
Answer: 0.168

Question: Which relative viability does the source give for CAL-12T here?
Answer: 1.31

Question: With NCI-H1651 as the cell line, how does the relative viability read?
Answer: 0.548

Question: With EPLC-272H as the cell line, how does the relative viability read?
Answer: 0.328

Question: For NCI-H2228, which relative viability is on record?
Answer: 0.355

Question: How did the relative viability turn out when NCI-H1355 was run?
Answer: 1.08

Question: NCI-H3122 was tested. Which relative viability did it give?
Answer: 0.194

Question: For NCI-H1437, which relative viability is on record?
Answer: 0.308

Question: NCI-H1755 was tested. Which relative viability did it give?
Answer: 0.401

Question: How did the relative viability turn out when NCI-H2023 was run?
Answer: 0.229

Question: For HCC-15, which relative viability is on record?
Answer: 0.225

Question: PC-14 was tested. Which relative viability did it give?
Answer: 0.128

Same assay, conditions: first compound 5 µM

Question: HCC-827 was tested. Which relative viability did it give?
Answer: 0.25

Question: How did the relative viability turn out when LXF-289 was run?
Answer: 0.994

Question: With NCI-H23 as the cell line, how does the relative viability read?
Answer: 0.851

Question: How did the relative viability turn out when NCI-H647 was run?
Answer: 0.2

Question: Which relative viability does the source give for CAL-12T here?
Answer: 1.27

Question: NCI-H1651 was tested. Which relative viability did it give?
Answer: 0.586

Question: For EPLC-272H, which relative viability is on record?
Answer: 0.371

Question: Which relative viability does the source give for NCI-H2228 here?
Answer: 0.341

Question: For NCI-H1355, which relative viability is on record?
Answer: 0.978

Question: For NCI-H3122, which relative viability is on record?
Answer: 0.191

Question: How did the relative viability turn out when NCI-H1437 was run?
Answer: 0.304

Question: With NCI-H1755 as the cell line, how does the relative viability read?
Answer: 0.417

Question: NCI-H2023 was tested. Which relative viability did it give?
Answer: 0.248

Question: For HCC-15, which relative viability is on record?
Answer: 0.216

Question: With PC-14 as the cell line, how does the relative viability read?
Answer: 0.129

Same assay, conditions: first compound 15.81 µM

Question: How did the relative viability turn out when HCC-827 was run?
Answer: 0.28

Question: For LXF-289, which relative viability is on record?
Answer: 0.918

Question: NCI-H23 was tested. Which relative viability did it give?
Answer: 0.622

Question: For NCI-H647, which relative viability is on record?
Answer: 0.188

Question: For CAL-12T, which relative viability is on record?
Answer: 0.987

Question: With NCI-H1651 as the cell line, how does the relative viability read?
Answer: 0.639

Question: For EPLC-272H, which relative viability is on record?
Answer: 0.401

Question: With NCI-H2228 as the cell line, how does the relative viability read?
Answer: 0.316

Question: For NCI-H1355, which relative viability is on record?
Answer: 1

Question: With NCI-H3122 as the cell line, how does the relative viability read?
Answer: 0.196

Question: For NCI-H1437, which relative viability is on record?
Answer: 0.33

Question: Which relative viability does the source give for NCI-H1755 here?
Answer: 0.423

Question: NCI-H2023 was tested. Which relative viability did it give?
Answer: 0.174

Question: How did the relative viability turn out when HCC-15 was run?
Answer: 0.22

Question: With PC-14 as the cell line, how does the relative viability read?
Answer: 0.142

Same assay, conditions: first compound 50 µM

Question: For HCC-827, which relative viability is on record?
Answer: 0.247

Question: LXF-289 was tested. Which relative viability did it give?
Answer: 0.865

Question: How did the relative viability turn out when NCI-H23 was run?
Answer: 0.709

Question: Which relative viability does the source give for NCI-H647 here?
Answer: 0.17

Question: With CAL-12T as the cell line, how does the relative viability read?
Answer: 1.31

Question: NCI-H1651 was tested. Which relative viability did it give?
Answer: 0.569

Question: With EPLC-272H as the cell line, how does the relative viability read?
Answer: 0.322

Question: NCI-H2228 was tested. Which relative viability did it give?
Answer: 0.351

Question: How did the relative viability turn out when NCI-H1355 was run?
Answer: 1.01

Question: With NCI-H3122 as the cell line, how does the relative viability read?
Answer: 0.195

Question: Which relative viability does the source give for NCI-H1437 here?
Answer: 0.372

Question: NCI-H1755 was tested. Which relative viability did it give?
Answer: 0.408

Question: How did the relative viability turn out when NCI-H2023 was run?
Answer: 0.286

Question: For HCC-15, which relative viability is on record?
Answer: 0.227

Question: PC-14 was tested. Which relative viability did it give?
Answer: 0.165
